Columns and labels:
[1] = tested on: mitochondria isolated from NRVMs; test: Mitochondrial swelling assay (Ca2+-induced mPTP opening); type: cell-based, rat; settings: 50 μM compound, Ca2+ 250 μM
Protocol: NRVMs were homogenized in ice-cold mitochondrial isolation buffer (10 mM sucrose, 200 mM mannitol, 5 mM HEPES, and 1 mM EGTA, pH 7.4) containing 1 mg/mL fatty acid-free bovine serum albumin. The homogenate was centrifuged for 10 minutes at 1000×g, and the supernatant was centrifuged again at 14,000×g for 10 minutes. The mitochondrial pellets were washed twice and centrifuged at 11,200×g. The isolated mitochondria (1 mg protein) were added to 0.2 mL of buffer mitochondrial swelling buffer (70 mM sucrose, 230 mM mannitol, 3 mM HEPES, 2 mM Trisphosphate, 5 mM succinate). Mitochondrial swelling was measured by decrease in absorbance at 540 nm after addition of Ca^2+ (250 μM). To study the protective effect of C-2 and Ru360, mitochondrial swelling assay was performed in mitochondria treated with or without the compounds (50 μM).
Additionally, the swelling of mitochondria isolated from NRVMs subjected to H/R injury in the absence or presence of C-2 or Ru360 was monitored. After baseline measurement of the absorbance at 600 nm, a single bolus of Ca^2+ (250 μM) was added to induce mPTP opening. As known, the decrease in mitochondrial absorbance indicates mitochondrial swelling and subsequent mPTP opening.

[2] = target: T1, mitochondrial calcium uniporter (MCU) (Homo sapiens, UniProt Q8NE86); test: Cytoplasmic and mitochondrial Ca2+ dynamics in intact HeLa cells after histamine; type: cell-based; parameters: 30 min) and Rhod-2 AM; endogenous in cells; host or cells: HeLa (intact; some experiments with transfected Ca2+ sensors R-GECO1 and GCamP6-mt, MCU itself not transfected); settings: for inhibition of MCU-mediated mCa2+ uptake in intact cells: intact HeLa cells, 50 μM for 30 minutes, histamine 100 μM, Rhod-2 AM and GCamP6-mt; for cytosolic calcium dynamics in intact cells: intact cells stimulated with histamine
T1 sequence (Q8NE86 51-351): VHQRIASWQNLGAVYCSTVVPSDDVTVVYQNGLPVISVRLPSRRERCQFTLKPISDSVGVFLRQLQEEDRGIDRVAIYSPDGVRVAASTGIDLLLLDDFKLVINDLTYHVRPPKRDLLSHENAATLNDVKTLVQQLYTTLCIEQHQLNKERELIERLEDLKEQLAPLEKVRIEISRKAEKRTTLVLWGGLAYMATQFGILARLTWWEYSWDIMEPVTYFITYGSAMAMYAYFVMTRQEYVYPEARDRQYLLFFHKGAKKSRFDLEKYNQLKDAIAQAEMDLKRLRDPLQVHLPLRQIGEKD
T1 sequence (Q9H4I9 48-107 partner limits assumed): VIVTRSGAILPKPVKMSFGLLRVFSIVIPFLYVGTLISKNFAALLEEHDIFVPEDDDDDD
Protocol: HeLa cells were loaded with Fluo-4-AM (5 μM; 30 min) and Rhod-2 AM (2 μM; 50 min) in extracellular medium as previously described (F. Perocchi et al, Nature 2010, 467, 291-296). Coverslips were mounted in an open perfusion microincubator at 37° C. and imaged. After 1 minute of baseline recording, histamine (100 μM) was added, and confocal images were recorded every 3 seconds at 488 and 561 nm excitation using a 40× oil objective. Images were analyzed and quantified by using ImageJ (NIH).
HeLa cells were transiently transfected with genetically encoded cytosolic and mitochondrial targeted Ca^2+ sensors R-GECO1 and GCamP6-mt plasmids. After 48 hours, the transfected cells were treated with MCU inhibitors (C1, C-2, and C-3; 50 μM). After 1 minute of baseline recording, histamine (100 μM) was added, and the change of R-GECO1 and GCamP6-mt fluorescence was measured with 488-nm and 561-nm excitation on a confocal microscope equipped with a 40× oil objective. Images were analyzed and quantified by using ImageJ (NIH).
Encouraged by the high cell permeability and mitochondrial selectivity of C-2, the capability of this complex to inhibit MCU-mediated mCa^2+ uptake in intact, non-permeabilized cells was investigated Briefly, HeLa cells were loaded with the cytosolic calcium concentration ([Ca^2+]) indicator Fluo-4 AM and the mitochondrial calcium concentration ([…]) indicator Rhod-2 AM in the presence or absence of C-1, C-2, and C-3 (50 μM). Cells were stimulated with the GPCR agonist histamine (100 μM) to rapidly elevate cCa^2+ levels to induce mCa^2+ uptake (Z. Dong et al., Mol. Cell 2017, 65, 1014-1028).
FIGS. 3A and 3B are graphs showing results of cytosolic ([Ca^2+]e, Fluo-4 AM) and mitochondrial ([Ca^2+]m, Rhod-2 AM) calcium transients in HeLa cells after treatment with histamine (100 μM) that were pretreated with or without C-1, C-2, or C-3 (50 μM) for 30 minutes. FIGS. 3C and 3D are graphs showing results of cytosolic ([Ca^2+]e, R-GECO) and mitochondrial ([Ca^2+]m, GCamP6-mt)) calcium transients in HeLa cells after treatment with histamine (100 μM) that were pretreated with or without C-1, C-2, or C-3 (50 μM) for 30 minutes. HeLa cells were co-transfected with R-GECO1 and GCamP6-mt. 48 hours post-transfection. Data are represented as mean±SEM. *p<0.05. n=3-6.

Compound	mitochondrial swelling (decrease in absorbance after Ca2+ addition) [1]	inhibition of MCU-mediated mCa2+ uptake in intact cells [2]	inhibition of MCU-mediated mCa2+ uptake in intact cells ([2]; listed as Ru265)	cytosolic calcium dynamics in intact cells [2]	cytosolic calcium dynamics in intact cells ([2]; listed as Ru265)
N.N.N.N.N.N.N.N.[Cl-].[Cl-].[N-3].[Ru+4].[Ru+4] [C-2, [Ru2(μ-N)(NH3)8Cl2]Cl3]	no decrease in absorbance was observed	significant inhibition of MCU-mediated mCa^2+ uptake	most effective MCU-inhibition in non-permeabilized cells	normal cytosolic calcium dynamics	without any effect on intracellular Ca^2+ dynamics
N.N.N.N.N.N.N.N.O=C[O-].O=C[O-].[O-2].[Ru+3].[Ru+4] [Ru360, reference compound]	no decrease in absorbance was observed	–	–	–	–
[Ru2(μ-N)(en)4Cl2]Cl3 [C-3]	–	did not show appreciable inhibition of mCa^2+ uptake	–	–	–
